Laboratory results: US10787448B2, “Indolizino [3,2-C] quinoline-based fluorescent probe” (SEOUL NATIONAL UNIVERSITY R & DB FOUNDATION, priority 2015, dated 2020)
“Also recorded” adds a separate entry of the source. Like-named read-outs stand apart in the source and are kept apart here.

Tests used:
[1] = in water; cited from earlier work
[2] = Analysis of optical characteristics (absorption, fluorescence emission, quantum yield) in solvents; type: physicochemical; settings: for Fluorescence Emission Intensity / Peak emission wavelength λmax em(nm) / Relative fluorescence Emission Intensitynorm: H2O at 2 μM; for Peak emission wavelength λmax em(nm): excited at the longest absorption maxima; for Relative fluorescence Emission Intensitynorm: normalized fluorescence intensity; for Fluorescence quantum yield (Φ): Rhodamine 6G as a standard (Φ = 0.86 in water)
How it was run: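 Optical properties of indolizinoquinoline compounds were examined in solvents. A 10 mM DMSO stock was diluted into the solvent, and fluorescence emission spectra were recorded at 20° C. on a JASCO FP-6500 spectrofluorometer. Absorption spectra were taken at room temperature on a Perkin Elmer Lamda 20 UV/VIS spectrometer. Fluorescence quantum yield (Φ) was determined.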

PDEδ [3] = biological target: T1, PDEδ (Homo sapiens, UniProt O43924); test: Confirmation of target protein using FRET; type: binding; settings: irradiated with 280-nm light
T1 construct: made in house; host or cells: E. coli
T1 sequence (O43924 whole entry): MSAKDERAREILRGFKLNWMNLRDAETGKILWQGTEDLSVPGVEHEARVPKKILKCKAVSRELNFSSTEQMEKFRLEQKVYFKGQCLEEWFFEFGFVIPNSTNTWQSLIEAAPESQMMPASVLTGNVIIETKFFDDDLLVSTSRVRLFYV
Method: Therefore, to confirm whether the fluorescent material is able to selectively bind to a specific protein in a cell, fluorescence of the recombinant PDE and/or indolizino[3,2-c]quinoline compound, which is overexpressed in E. coli cells, followed by isolation and purification, was measured by being irradiated with 280-nm light.

[4] = Photostability of fluorescence in aqueous solution or ethanol (natural light, blue light); type: physicochemical; settings: aqueous solution
Method: As a candidate material that can be applied to a fluorescent probe, to confirm how long fluorescence persists in materials with high fluorescence intensity in an aqueous solution among the indolizino[3,2-c]quinoline compounds, photostability according to time in an aqueous solution or ethanol solvent was evaluated as follows.
First, fluorescence of a corresponding material was measured using a cuvette, and the fluorescence per time for the cuvette sample was remeasured until 6 to 7 hours in a natural light state so as to confirm fluorescence stability.
Further, from the above example, when the indolizino[3,2-c]quinoline compounds including the IQ 3, 4, 6 and 8 compounds in which the fluorescence is stably maintained in an aqueous solution for approximately 6 hours are represented by Formula X, some materials in which neither A, B, C nor D ring has a substituent were selected and irradiated with blue light in an aqueous solution, and then a stability experiment was carried out to confirm the maintenance of the fluorescence.

HeLa cells = test: Cell permeability: fluorescence imaging and live cell confocal imaging; type: cell-based; settings: HeLa cells
Method: HeLa cells were seeded in a 96-well plate and incubated for 24 hours. The cells were treated with the indolizino[3,2-c]quinoline compounds, and incubated at 37° C. under a 5% CO2 condition for 30 minutes. After removal of the medium, the cells were washed with 1×DPBS. The washed cells were fixed with 4% formaldehyde at room temperature for 10 minutes, and washed with 1×DPBS. A cell image was screened using an Operetta HTS imaging system (PerkinElmer).
After HeLa cells were seeded to account for 70 to 80% of the area of a confocal dish (SPL life science) and overnight cultured, the indolizino[3,2-c]quinoline compounds (10 μM) prepared by mixing fresh DMEM after removal of the existing DMEM medium were dispensed, and the cells were incubated for 30 minutes to 1 hour at 37° C. Afterward, if needed, LysoTracker (50 nM) was mixed with DMEM to remove the existing medium and then dispensed to the cells, and the cells were incubated for 30 minutes at 37° C. After incubation, without washing, the cells were examined by a confocal laser microscope (Leica TCS SP8 SMD, Leica, Mannheim, Germany). However, when co-stained with a LysoTracker, the cells were washed with DPBS twice before the microscopy. […]

cells [5] = test: Co-staining / co-localization with DAPI, MitoTracker or LysoTracker; type: cell-based
[6] = biological target: Human Serum Albumin (HSA) (Homo sapiens, UniProt P02768); test: Protein binding by fluorescence change (FRET, Job's plot, titration, quantum yield)
Human Serum Albumin (HSA), sequence (P02768 25-609): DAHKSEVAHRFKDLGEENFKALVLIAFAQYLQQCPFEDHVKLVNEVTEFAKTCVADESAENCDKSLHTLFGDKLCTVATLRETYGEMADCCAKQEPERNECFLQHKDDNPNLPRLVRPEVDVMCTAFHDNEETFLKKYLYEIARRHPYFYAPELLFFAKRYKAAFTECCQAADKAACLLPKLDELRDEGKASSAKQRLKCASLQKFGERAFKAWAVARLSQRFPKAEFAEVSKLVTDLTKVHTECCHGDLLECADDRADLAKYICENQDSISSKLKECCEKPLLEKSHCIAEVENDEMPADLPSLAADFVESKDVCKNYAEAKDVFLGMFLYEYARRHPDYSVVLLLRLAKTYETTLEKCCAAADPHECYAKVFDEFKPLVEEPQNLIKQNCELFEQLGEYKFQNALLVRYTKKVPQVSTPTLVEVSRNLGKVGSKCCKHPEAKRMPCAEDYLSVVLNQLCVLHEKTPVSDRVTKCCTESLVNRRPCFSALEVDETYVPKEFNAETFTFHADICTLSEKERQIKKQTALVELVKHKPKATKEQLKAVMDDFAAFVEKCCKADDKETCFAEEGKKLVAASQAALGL
Method: Using a fluorescence spectrophotometer, it was confirmed whether the indolizino[3,2-c]quinoline compound of the present invention binds to a protein. Specifically, among the indolizino[3,2-c]quinoline compounds, 13 types of compounds with high fluorescence in a Tris buffer (pH 7.5) were added to Bovine Serum Albumin (BSA) and Human Serum Albumin (HSA) to observe a fluorescence change.

cells [7] = test: Comparison of fluorescence stability with conventionally developed dyes; type: cell-based
PDEδ [8] = biological target: T1, PDEδ; test: Titration using fluorescence polarization; type: binding; settings: 0.5 μM compound, PDEδ protein from 0 to 32 μM
Method: To confirm whether the indolizino[3,2-c]quinoline compound can bind to a specific intracellular protein, in the presence of 0.5 μM of the indolizino[3,2-c]quinoline compound, titration was performed by increasing the concentration of the PDEδ protein from 0 to 32 μM to measure a polarization degree.

PDEδ [9] = biological target: T1, PDEδ; test: Titration using fluorescence polarization; type: binding; settings: Table 9
[10] = test system: DNA oligomers (48 bp) tetO sequences; test: Binding to DNA by fluorescence spectrophotometer; settings: hybridized tetO DNA oligomers added, 1 minute incubation
Method: Using a fluorescence spectrophotometer, it was confirmed whether the indolizino[3,2-c]quinoline compound of the present invention binds to DNA. First, DNA oligomers (48 bp) used in the experiment are tetO sequences, and the base sequences thereof are as follows.
The same molarities of oligomers were mixed while being heated at 95° C. for 5 minutes and cooled to room temperature for 2 hours to hybridize, the fluorescence of each of the indolizino[3,2-c]quinoline compounds of the present invention was measured, a corresponding equivalent of DNA oligomer was added to a cuvette, and then incubated while blocking light for 1 minute to measure fluorescence again.

| Structure (SMILES) | quantum yield (Φ) ([2]; DW, standard Rhodamine 6G) | quantum yield (Φ) ([2]; EtOH, standard Coumarin 153) | Fluorescence Emission Intensity [2] | Peak emission wavelength λmax em(nm) [2] | Relative fluorescence Emission Intensitynorm [2] | Kd (PDEδ [8]) | kmax em(nm) (PDEδ [9]) | λabs(nm) (PDEδ [9]) | further results |
| --- | --- | --- | --- | --- | --- | --- | --- | --- | --- |
| O=c1cc(C(F)(F)F)c2cc3c4c(c2o1)CCCN4CCC3 [Coumarin 153] | – | – | – | – | – | – | – | – | quantum yield of the standard (Φ) [1]: 0.12 |
| O=[N+]([O-])c1ccc(-c2nc3ccccc3c3cc4ccccn4c23)cc1 [IQ 2, 6-(4-nitrophenyl)indolizino[3,2-c]quinoline] | – | – | – | – | – | – | – | – | fluorescence (intensity, in words) [2]: did not induce fluorescence; fluorescence change / binding to PDEδ by FRET (PDEδ [3]): low fluorescence intensity |
| COc1ccc(-c2nc3ccccc3c3cc4ccccn4c23)cc1 [IQ 6, 6-(4-methoxyphenyl)indolizino[3,2-c]quinoline] | – | – | – | – | – | – | – | – | solvent-dependent (environment-sensitive) tendency of the emission [2]: solvatochromic effect; peak emission (λmax) ([2]; ethanol solvent (EtOH)): 511 nm; quantum yield ([2]; in ethanol using coumarin 153 as a standard): 0.816; stability of fluorescence under irradiation with blue light ([4]; blue light for 2 hours): still stably exhibited fluorescence intensity; photostability: fluorescence over time ([4]; natural light, up to 6 hours): stably maintained in an aqueous solution up to 6 hours with almost no change; intracellular molecule recognized (HeLa cells): recognized intracellular RNA; intracellular organelles in which fluorescence is detected (HeLa cells): intensively distributed in cytoplasmic and nucleolus areas; staining pattern compared with conventional dyes (cells [5]): an aspect similar to RNA select for staining RNA |
| Cc1cccn2c1cc1c3ccccc3nc(-c3ccc([N+](=O)[O-])cc3)c12 [IQ 13, 11-methyl-6-(4-nitrophenyl)indolizino[3,2-c]quinoline] | – | – | – | – | – | – | – | – | fluorescence (intensity, in words) [2]: did not induce fluorescence; fluorescence change / binding to PDEδ by FRET (PDEδ [3]): no change in fluorescence |
| COc1cc(OC)cc(-c2nc3ccccc3c3cc4c(C)cccn4c23)c1 [IQ 16, 6-(3,5-dimethoxyphenyl)-11-methylindolizino[3,2-c]quinoline] | – | – | – | – | – | – | – | – | intracellular molecule recognized (HeLa cells): recognized DNA; intracellular organelles in which fluorescence is detected (HeLa cells): stained intensively in the nuclear area; fluorescence change on binding to HSA [6]: increasing fluorescence intensity; staining pattern compared with conventional dyes (cells [5]): staining almost similar to DAPI |
| CN(C)c1ccc(-c2nc3ccccc3c3cc4ccccn4c23)cc1 [IQ 36, 4-(indolizino[3,2-c]quinolin-6-yl)-N,N-dimethylaniline] | – | – | – | – | – | – | – | – | fluorescence stability compared with commercially available dyes (cells [7]): superior stability, compared to Sytoselect; intracellular molecule recognized (HeLa cells): recognized intracellular RNA; intracellular organelles in which fluorescence is detected (HeLa cells): intensively distributed in cytoplasmic and nucleolus areas; staining pattern compared with conventional dyes (cells [5]): an aspect similar to RNA select for staining RNA; also recorded: stains RNA in a pattern similar to the now currently available Sytoselect; staining pattern compared with conventional dyes (cells [5]; listed as Formula 12): works as a complementary stain with respect to DAPI |
| Brc1ccc(-c2nc3ccccc3c3cc4ccccn4c23)cc1 [compound 1] | 0.015 | 0.636 | 32.7 | 522 nm | 0.14 | 284 nM | 530 nm | 430 nm | Maximum absorption wavelength λmax abs(nm) [2]: 400 nm |
| Cc1ccc(-c2nc3ccccc3c3cc4ccccn4c23)cc1 [compound 3] | 0.068 | 0.839 | 59.7 | 519 nm | 0.26 | 491 nM | 526 nm | 440 nm | change in fluorescence intensity on addition of DNA oligomer [10]: Decrease in fluorescence intensity |
| c1ccc(-c2nc3ccccc3c3cc4ccccn4c23)cc1 [compound 4] | 0.039 | 0.779 | 55.0 | 519 nm | 0.24 | 505 nM | 515 nm | 430 nm | change in fluorescence intensity on addition of DNA oligomer [10]: Decrease in fluorescence intensity |
| COc1ccc(-c2nc3ccccc3c3cc4ccccn4c23)cc1 [compound 6] | – | – | 231.3 | 514.5 nm | 0.99 | 729 nM | 515 nm | 430 nm | Absorption coefficient (cm^−1M^−1) [2]: 6547 cm^−1M^−1; Absorption wavelength λex(nm) [2]: 430 nm; Emission wavelength λem(nm) [2]: 515 nm; Maximum absorption wavelength λmax abs(nm) [2]: 430 nm; λem (nm) ([2]; DMF): 469 nm; λem (nm) ([2]; DMSO): 512 nm; λem (nm) ([2]; EtOH): 465 nm; λem (nm) ([2]; EtOH:CHCl3 = 1:5): 466 nm; λem (nm) ([2]; H2O): 511 nm; λem (nm) ([2]; MC): 467 nm; Fluorescence quantum yield (Φ) [2]: 0.121; shift of maximum emission wavelength on addition of DNA oligomer [10]: wavelength to longer wavelength |
| COc1ccc(-c2nc3ccccc3c3cc4ccccn4c23)cc1OC [compound 8] | 0.102 | 0.652 | 171.3 | 513 nm | 0.74 | 1280 nM | 515 nm | 430 nm | shift of maximum emission wavelength on addition of DNA oligomer [10]: wavelength to longer wavelength |
| c1ccc2c(-c3nc4ccccc4c4cc5ccccn5c34)cccc2c1 [compound 9] | – | – | 232.9 | 514 nm | 1.00 | 1540 nM | 515 nm | 430 nm | Absorption coefficient (cm^−1M^−1) [2]: 11656 cm^−1M^−1; Absorption wavelength λex(nm) [2]: 405 nm; Emission wavelength λem(nm) [2]: 515 nm; λem (nm) ([2]; DMF): 478 nm; λem (nm) ([2]; DMSO): 514 nm; λem (nm) ([2]; EtOH): 465.5 nm; λem (nm) ([2]; EtOH:CHCl3 = 1:5): 467.5 nm; λem (nm) ([2]; H2O): 516 nm; λem (nm) ([2]; MC): 469 nm; Fluorescence quantum yield (Φ) [2]: 0.053 |
| c1ccc2cc(-c3nc4ccccc4c4cc5ccccn5c34)ccc2c1 [compound 10] | 0.015 | 0.350 | 39.6 | 532 nm | 0.17 | 643 nM | 530 nm | 430 nm | change in fluorescence intensity on addition of DNA oligomer [10]: Increase in fluorescence intensity |
| c1coc(-c2nc3ccccc3c3cc4ccccn4c23)c1 [compound 42] | – | – | – | – | – | 425 nM | – | – | – |
